# Results: paper PMC10669433 (Antibiotics, 2023)
# “Also recorded” adds a separate entry of the source.
# What was measured:
# [1] = system: cardiovascular prosthetic infections (PVE, CEDI, PVGI); experiment: Clinical cure in patients with cardiovascular prosthetic infections treated with dalbavancin as sequential therapy (retrospective case series); type: in vivo, human
# Procedure: Data were collected from May 2019 to May 2023 at the Modena University Hospital, a tertiary care hospital in Northern Italy. Cardiovascular infections included PVE, CEDI, and PVGI.
# (§1) Clinical evaluation was carried out at the end of treatment (EOT) and at the end of a six-month follow-up. Primary outcome was clinical cure, defined as resolution of all clinical signs and symptoms of infection, with or without radiological improvement. […] Finally, for primary outcome, a comparison between patients treated with standard (the 1500 mg infusion regimen at day 1 and day 8, with subsequent 1000 mg administrations every 2 weeks) vs. TDM-guided approach was performed.
# [2] = system: cardiovascular prosthetic infections (PVE, CEDI, PVGI); experiment: Microbiological cure / relapse (blood cultures) in the case series; type: in vivo, human
# Procedure: as §1
# [3] = Adverse events in the case series; type: in vivo, human
# [4] = system: cardiovascular prosthetic infections (PVE, CEDI, PVGI); experiment: 18F-FDG PET/TC radiological improvement; type: in vivo, human; conditions: 18F-FDG PET/TC available for nine patients; 6/9
# Text: For diagnosis, all patients underwent clinical, microbiological, and echocardiographic evaluation (transthoracic echocardiography and transesophageal echocardiography [TEE]). Major echocardiographic criteria included vegetation, abscess, pseudoaneurysm, intracardiac fistula, valvular perforation or aneurysm, and new partial dehiscence of prosthetic valve. In addition, according to clinical indication, computed tomography (CT) angiography or cardiac one and/or 18F-fluorodeoxyglucose (FDG)-positron emission tomography (PET) PET were also performed.
# Data collection included demographic information, Charlson Comorbidity Index (CCI), type and site of infection, microbiological isolation, prior antibiotic treatment, surgical procedure (performed or not, complete or partial), laboratory variables, and when available, radiological improvement (fluorodeoxyglucose positron emission tomography (FDG-PET) alone or in combination with computed tomographic angiography (CTA) to assess optimal duration of antibiotic treatment at follow-up).
# [5] = cited from earlier work
# Text: It is associated with good tissue penetration, including staphylococcal biofilms, making this antibiotic a promising agent to treat biofilm-mediated infections.
# [6] = system: vancomycin-resistant S. aureus (VRSA); conditions: cited from earlier work
# Text: (§2) Dalbavancin is a long-acting parenteral lipoglycopeptide, a semisynthetic derivative of teicoplanin. It is characterized by a large spectrum of action against Gram-positive bacteria, such as Staphylococcus aureus (including methicillin-resistant S. aureus, but also strains with intermediate sensitivity to vancomycin), Streptococcus agalactiae, Streptococcus pyogenes, Streptococcus anginosus, vancomycin-sensitive Enterococcus faecium, and Enterococcus faecalis; it is poorly active against vancomycin-resistant S. aureus (VRSA), and it is not active against vancomycin-resistant enterococci with t ...
# [7] = system: vancomycin-resistant enterococci with the Van A phenotype; conditions: cited from earlier work
# Text: as §2
# [8] = system: infective endocarditis; conditions: review, sequential dalbavancin in infective endocarditis, 170 patients; cited from earlier work
# [9] = system: infective endocarditis; parameters: method as in PMID 37442488, PMID 30389305; conditions: 124 subjects with infective endocarditis; cited from earlier work
# [10] = system: S. aureus; conditions: dalbavancin group vs 22% in the SOC group, p = 0.484; cited from earlier work
# Text: Unfortunately, all patients received dalbavancin as sequential therapy, with a medi ...
smiles,measurement,setting,value
CN[C@H]1C(=O)N[C@@H]2Cc3ccc(cc3)Oc3cc4cc(c3O[C@@H]3O[C@H](C(=O)O)[C@@H](O)[C@H](O)[C@H]3NC(=O)CCCCCCCCC(C)C)Oc3ccc(cc3Cl)[C@@H](O)[C@@H]3NC(=O)[C@H](NC(=O)[C@@H]4NC(=O)[C@@H](NC2=O)c2cc(cc(O)c2Cl)Oc2cc1ccc2O)c1ccc(O)c(c1)-c1c(O[C@H]2O[C@H](CO)[C@@H](O)[C@H](O)[C@@H]2O)cc(O)cc1[C@@H](C(=O)NCCCN(C)C)NC3=O [dalbavancin],Clinical cure according to causative pathogen: E. faecalis,[1]; 1/1 patient,100%
same,Clinical cure according to causative pathogen: G. morbillorum,[1]; 1/1 patient,100%
same,Clinical cure according to causative pathogen: CoNS,[1]; 2/2 patients,100%
same,Clinical cure according to causative pathogen: viridans Streptococcus,[1]; 3/3 patients,100%
same,Clinical cure according to causative pathogen: S. aureus,[1]; 3/5 patients,60%
same,Clinical success in patients treated without TDM,[1]; 3/5 patients,60%
same,"Clinical cure, suppressive antibiotic therapy without complete source control",[1]; 6/9 patients,66.6%
same,"Clinical cure at the EOT, cardiac implantable electronic devices infections (n = 3), %","[1]; CEDI, end of treatment",(66.6) %
same,"Clinical cure at the EOT, cardiac implantable electronic devices infections (n = 3), patients/evaluable","[1]; CEDI, end of treatment",2/3
same,"Clinical cure at the EOT, prosthetic valve endocarditis (n = 8), %","[1]; PVE, end of treatment",(75) %
same,"Clinical cure at the EOT, prosthetic valve endocarditis (n = 8), patients/evaluable","[1]; PVE, end of treatment",6/8
same,"Clinical cure at the EOT, prosthetic vascular grafts infections (n = 6), %","[1]; PVGI, end of treatment",(83.3) %
same,"Clinical cure at the EOT, prosthetic vascular grafts infections (n = 6), patients/evaluable","[1]; PVGI, end of treatment",5/6
same,"Clinical cure at the EOT (n = 13), %","[1]; end of treatment, 10/13 patients",(76.9) %
same,"Clinical cure at the EOT (n = 13), patients cured/evaluable","[1]; end of treatment, dalbavancin 1500 mg day 1 and day 8, then further doses (fixed or TDM-guided), after first-line antibiotics",10/13
same,"Clinical cure, patients who underwent the complete source control intervention","[1]; implant removal, 4/4 patients",100%
same,"Clinical cure in TDM-guided group (n = 8), patients cured/evaluable",[1]; patients with TDM-guided redosing,7/8
same,Clinical Success End of Treatment,[1]; single patients,Yes (7 w); also recorded: Yes (25 w); also recorded: Yes (18 w); also recorded: Yes (29 w); also recorded: Yes (14 w); also recorded: Yes (47 w); also recorded: Yes (9 w); also recorded: No (16 w); also recorded: Yes (10 w); also recorded: Yes (20 w); also recorded: No (53 w); also recorded: No (12 w)
same,Clinical Success Six Months Follow-Up,"[1]; single patients, one table row per patient",Yes and No
same,"Clinical cure at six months of follow-up (n = 12), %",[1]; six-month follow-up,(75) %
same,"Clinical cure at six months of follow-up (n = 12), patients cured/evaluable",[1]; six-month follow-up,9/12
same,"Microbiological relapse after treatment interruption (n = 13), patients/evaluable",[2]; after dalbavancin interruption,1/13
same,"Microbiological cure at the EOT (n = 13), patients/evaluable","[2]; end of treatment, sustained negativity of blood cultures",10/13
same,Tolerability,"[3]; 14 patients, long-term therapy",well tolerated
same,"Adverse effect reactions: impaired renal function, %",[3]; of N = 14 patients,(7.1) %
same,"Adverse effect reactions: rash, %",[3]; of N = 14 patients,(7.1) %
same,Radiological improvement with a marked SUV reduction,[4],66.6%
same,elimination half-life,[5],14 days
same,total protein binding,[5],93%
same,clearance route,[5]; no active metabolites,predominantly renal
same,activity against vancomycin-resistant S. aureus (VRSA),[6],poorly active
same,activity against vancomycin-resistant enterococci with the Van A phenotype,[7],not active
same,overall clinical efficacy,[8],around 90%
same,clinical success rate at 12 months of follow-up,[9],95.2%
same,treatment-related readmission rates within 30 days,[10],15%
